B1: BmoR: σ54-dependent transcription factor (activator protein) of P. butanovora, SEQ ID NO: 4, activated by C2-C8 alcohols (protein, listed as Pseudomonas butanova)
chain: MSKMQEFARLETVASMRRAVWDGNECQPGKVADVVLRSWTRCRAEGVVPNARQEFDPIPRTALDETVEAKRALILAAEPVVDALMEQMNDAPRMIILNDERGVVLLNQGNDTLLEDARRRAVRVGVCWDEHARGTNAMGTALAERRPVAIHGAEHYLESNTIFTCTAAPIYDPFGEFTGILDISGYAGDMGPVPIPFVQMAVQFIENQLFRQTFADCILLHFHVRPDFVGTMREGIAVLSREGTIVSMNRAGLKIAGLNLEAVADHRFDSVFDLNFGAFLDHVRQSAFGLVRVSLYGGVQVYARVEPGLRVPPRPAAHARPPRPAPRPLDSLDTGDAAVRLAIDRARRAIGRNLSILIQGETGAGKEVFAKHLHAESPRSKGPFVAVNCAAIPEGLIESELFGYEEGAFTGGRRKGNIGKVAQAHGGTLFLDEIGDMAPGLQTRLLRVLQDRAVMPLGGREPMPVDIALVCATHRNLRSLIAQGQFREDLYYRLNGLAISLPPLRQRSDLAALVNHILFQCCGGEPHYSVSPEVMTLFKRHAWPGNLRQLHNVLDAALAMLDDGHVIEPHHLPEDFVMEVDSGLRPIEEDGSTAAHRARQPASGSGPAKKLQDLALDAIEQAIEQNEGNISVAARQLGVSRTTIYRKLRQLSPTGCHRPAHWSQSRIGT

Tests used:
pBMO promoter activity = assay type: cell-based, E. coli; settings: for activation of pBMO-promoter expression by BmoR in response to alcohol: E. coli, pBMO::GFP reporter
Procedure: A pBMO-promoter::GFP reporter cassette is constructed. The pBMO-promoter comprises the nucleotide sequences from the −425 nucleotide to the +11 nucleotide. This section of the pBMO-promoter comprises the upstream activating sequence (UAS) to which BmoR binds. A deletion analysis is performed whereby the upstream sequence is deleted to produce reporter cassettes comprising of the −325 nucleotide to the +1 nucleotide fragment, the −225 nucleotide to the +1 nucleotide fragment, the −175 nucleotide to the +1 nucleotide fragment, the +1 nucleotide to the +1 nucleotide fragment, and no fragment (FIG. 3). The various reporter cassettes are introduced into an E. coli. also containing the bmoR gene operatively linked to the pBAD promoter or a pZT promoter. The pBAD promoter is taught by Guzman, L. M., et al., “Tight regulation, modulation, and high-level expression by vectors containing the arabinose PBAD promoter”, J. Bacteriol. 177(14):4121-4130 (1995), which is incorporated by reference.
Using the pBMO-promoter reporter cassette comprising of the −325 nucleotide to the +1 nucleotide fragment, the E. coli strain is analyzed for the optimum temperature for pBMO promoter activity using different concentrations of butan-1-ol.
Using the pBMO-promoter reporter cassette comprising of the −325 nucleotide to the +1 nucleotide fragment, the E. coli strain is analyzed for pBMO promoter activity in response to different alcohols: butan-1-ol (FIG. 5), ethanol (FIG. 6), 1-propanol (FIG. 6), 2-propanol (FIG. 6), pentanol (FIG. 5), and hexanol (FIG. 5). From an overnight culture harboring a plasmid containing GFP under control of pBMO and BmoR under control of pZT 5 mL cultures of rich media were inoculated (1.5% v/v). Cultures are grown at 37° C., 200 rpm, until reaching an optical density (OD600) of 0.25 and induced with 57.5 ng/mL anhydrotetracyline. The cultures are than grown at 25° C., 200 rpm, until reaching an OD600=0.80 at which point they are diluted to an OD600=0.20 in media containing a range of alcohol concentrations. The culture tubes are sealed with parafilm and grown at 25° C., 200 rpm, for 18 hours. 150 μl culture samples are quantified for GFP fluorescence on a 96-well plate reader.

[1] = system: E. coli cultures harboring the butanol biosensor controlling TetA expression; settings: media with multiple concentrations of butanol and tetracycline; N=4
Procedure: The BmoR transcription factor is used to construct a genetic selection for the presence of butanol in the media.
Maximal growth rates are calculated by fitting curves to the Gompertz equation. […] N=4, mean±standard deviation.

[2] = system: 300-nucleotide DNA fragment upstream of the pBMO-promoter; assay: Gel mobility shift assay; assay type: binding; settings: purified His-tagged BmoR, DIG Gel Shift Kit
Text: A DIG Gel Shift Kit (Roche Applied Science, Indianapolis, Ind.) is used according to the manufacturer's instructions.

Molecule | activation of pBMO-promoter expression by BmoR in response to alcohol (pBMO promoter activity) | other results
CCCCCO [1-pentanol] | capable of activating pBMO-promoter expression | 
CCO [ethanol] | capable of activating pBMO-promoter expression | 
CC(C)O [2-propanol] | capable of activating pBMO-promoter expression | 
CCCCCCO [1-hexanol] | capable of activating pBMO-promoter expression | 
CCC(C)O (stereo not drawn) [butan-1-ol] | capable of activating pBMO-promoter expression | butanol dependent growth (maximal growth rate) [1]: strong butanol dependent growth; activation of the reporter gene (optimum condition) (pBMO promoter activity; cultured at 25° C. with 0.5% of butan-1-ol by volume, compared to the other conditions tested): the activation of the reporter gene is the strongest
CCCO [1-propanol] | capable of activating pBMO-promoter expression | 
B1 |  | binding of BmoR upstream of the pBMO-promoter (band shift) [2]: A band shift is observed

Reference: patent publication US8552169B2, “Transcription factor-based biosensor” (The Regents of the University of California, priority 2009, dated 2013)
